Results taken from patent US20240158446A1, “CYCLIC COMPOUND HAVING SELECTIVE INHIBITORY ACTION ON KRAS OVER HRAS AND NRAS” (CHUGAI SEIYAKU KABUSHIKI KAISHA, priority 2021, published 2024).
Where two headings read alike, the source gives them in different places. Where a SMILES comes first, the peptide text is derived from it. Bridges are numbered along the chain shown (N, C = ends). [ ]: non-standard residue; d: D form. hPhe(3,5-F2-4-CF3) = N[C@@H](CCc1cc(F)c(C(F)(F)F)c(F)c1)C(=O)O; NPrPhe(4-CF3) = CCCN[C@@H](Cc1ccc(C(F)(F)F)cc1)C(=O)O; NMeGly(cPent) = CN[C@H](C(=O)O)C1CCCC1; Nva(3-Et) = CCC(CC)[C@H](N)C(=O)O; NMeD = CN[C@@H](CC(=O)O)C(=O)O; NMeL = CN[C@@H](CC(C)C)C(=O)O; Ac5c = NC1(C(=O)O)CCCC1; Sar = CNCC(=O)O

Tests used:
[1] = target: GDP-bound HRAS wild-type protein (Homo sapiens, UniProt P01112); test: Binding to HRAS by surface plasmon resonance (SPR), Single Cycle Kinetics; details: for HRAS/KRAS (ratio of KD value for HRAS to KD value for KRAS) / HRAS/KRAS (ratio of KD value with respect to HRAS to KD value with respect to KRAS): SPR, GDP-bound HRAS wild-type protein vs GDP-bound KRAS wild-type protein
[2] = target: GDP-bound KRAS wild-type protein (Homo sapiens, UniProt P01116); test: Binding to KRAS by surface plasmon resonance (SPR), Single Cycle Kinetics; details: GDP-bound KRAS wild-type protein, read-out: KRAS KD
[3] = target: GDP-bound NRAS wild-type protein (Homo sapiens, UniProt P01111); test: Binding to NRAS by surface plasmon resonance (SPR), Single Cycle Kinetics; details: for NRAS/KRAS (ratio of KD value for NRAS to KD value for KRAS) / NRAS/KRAS (ratio of KD value with respect to NRAS to KD value with respect to KRAS): SPR, GDP-bound NRAS wild-type protein vs GDP-bound KRAS wild-type protein
[4] = SPR Single Cycle Kinetics, 1:1 binding model

Sequence of GDP-bound NRAS wild-type protein (P01111 whole entry): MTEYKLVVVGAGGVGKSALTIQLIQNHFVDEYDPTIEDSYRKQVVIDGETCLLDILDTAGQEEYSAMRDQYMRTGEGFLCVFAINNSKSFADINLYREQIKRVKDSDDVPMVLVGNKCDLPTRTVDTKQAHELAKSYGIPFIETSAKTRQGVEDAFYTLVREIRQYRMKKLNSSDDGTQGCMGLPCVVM
Sequence of GDP-bound KRAS wild-type protein (P01116 whole entry): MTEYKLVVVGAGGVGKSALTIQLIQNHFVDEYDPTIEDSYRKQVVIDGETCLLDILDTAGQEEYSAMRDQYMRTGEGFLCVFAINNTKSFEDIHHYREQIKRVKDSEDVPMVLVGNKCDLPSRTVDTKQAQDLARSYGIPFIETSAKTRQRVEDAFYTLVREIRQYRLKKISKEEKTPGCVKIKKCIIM
Sequence of GDP-bound HRAS wild-type protein (P01112 whole entry): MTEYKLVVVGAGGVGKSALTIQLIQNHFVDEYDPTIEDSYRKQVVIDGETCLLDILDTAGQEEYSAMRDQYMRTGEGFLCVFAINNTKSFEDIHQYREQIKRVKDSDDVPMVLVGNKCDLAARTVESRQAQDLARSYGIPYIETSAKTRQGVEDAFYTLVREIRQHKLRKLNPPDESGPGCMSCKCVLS

Row | SMILES | Kd [2, 4] [nM] | HRAS/KRAS (ratio of KD value with respect to HRAS to KD value with respect to KRAS) [1] | NRAS/KRAS (ratio of KD value with respect to NRAS to KD value with respect to KRAS) [3] | other results
1 | CCO[C@@H]1C[C@H]2C(=O)NC3(CC(C)(C)C3)C(=O)N(C)[C@@H](C3CCCC3)C(=O)N(C)[C@H](C(=O)N(C)C)CC(=O)N(C)[C@@H](CC(F)(F)F)C(=O)N[C@@H]([C@@H](C)CC)C(=O)N(C)CC(=O)N(C)[C@H]3C/C=C\CCN(C3=O)[C@@H](Cc3ccc(C(F)(F)F)cc3)C(=O)N(C)CC(=O)N[C@@H](CCc3ccc(Cl)c(Cl)c3)C(=O)N2C1 [PP2832] | 0.18 | – | – | HRAS/KRAS (ratio of KD value with respect to GDP-bound HRAS wild-type protein to KD value with respect to KRAS) ([1]; SPR KD ratio HRAS/KRAS, class symbols): A (a compound having 10 or more and less than 20 is denoted as A); NRAS/KRAS (ratio of KD value with respect to GDP-bound NRAS wild-type protein to KD value with respect to KRAS) ([3]; SPR KD ratio NRAS/KRAS, class symbols): A (a compound having 10 or more and less than 20 is denoted as A)
2 | CCO[C@@H]1C[C@H]2C(=O)NC3(CC(C)(C)C3)C(=O)N(C)[C@@H](C(CC)CC)C(=O)N(C)[C@H](C(=O)N(C)C)CC(=O)N(C)[C@@H](CC)C(=O)N[C@@H]([C@@H](C)CC)C(=O)N(C)CC(=O)N(C)[C@H]3C/C=C\CCN(C3=O)[C@@H](Cc3ccc(C)cc3)C(=O)N(C)CC(=O)N[C@@H](CCc3ccc(C(F)(F)F)c(Cl)c3)C(=O)N2C1 [PP2154] | – | – | – | HRAS/KRAS (ratio of KD value for HRAS to KD value for KRAS) [1]: A (a compound having 10 or more and less than 20 is denoted as A); Kd ([2]; SPR, Single Cycle Kinetics): 0.36 nM; NRAS/KRAS (ratio of KD value for NRAS to KD value for KRAS) [3]: A (a compound having 10 or more and less than 20 is denoted as A)
3 | CCO[C@@H]1C[C@H]2C(=O)NC3(CCC3)C(=O)N(C)[C@@H](C3CCCC3)C(=O)N(CCC3CCC3)[C@H](C(=O)N(C)C)CC(=O)N(C)[C@@H](CC)C(=O)N[C@@H]([C@@H](C)CC)C(=O)N(C)CC(=O)N(C)[C@H]3CCCCN(C3=O)[C@@H](Cc3ccc(C(F)(F)F)cc3)C(=O)N(C)CC(=O)N[C@@H](CCc3cc(F)c(C(F)(F)F)c(F)c3)C(=O)N2C1 [PP0645] | 0.028 | B (a compound having 3 or more and less than 10 is denoted as B) | B (a compound having 3 or more and less than 10 is denoted as B) | –
4 | CCO[C@@H]1C[C@H]2C(=O)NC3(CCC3)C(=O)N(C)[C@@H](C3CCCC3)C(=O)N(C)[C@H](C(=O)N(C)CCOC)CC(=O)N(C)[C@@H](CC(C)C)C(=O)N[C@@H]([C@@H](C)CC)C(=O)N(C)CC(=O)N(C)[C@H]3C/C=C\CCN(C3=O)[C@@H](Cc3ccc(C(F)(F)F)cc3)C(=O)N(C)CC(=O)N[C@@H](CCc3ccc4sccc4c3)C(=O)N2C1 [PP1325] | – | – | – | HRAS/KRAS (ratio of KD value for HRAS to KD value for KRAS) ([1]; KD ratio class): A (a compound having 10 or more and less than 20 is denoted as A); Kd ([2]; SPR, Single Cycle Kinetics, 1:1 binding model): 0.55 nM; NRAS/KRAS (ratio of KD value for NRAS to KD value for KRAS) ([3]; KD ratio class): A (a compound having 10 or more and less than 20 is denoted as A)
5 | CCCN1C(=O)CN(C)C(=O)CN(C)C(=O)[C@H](C(CC)CC)NC(=O)[C@H](CC(C)C)N(C)C(=O)C[C@@H](C(=O)N(C)C)N(C)C(=O)[C@H](C2CCCC2)N(C)C(=O)C2(CCCC2)NC(=O)[C@@H]2CCCN2C(=O)[C@H](CCc2cc(F)c(C(F)(F)F)c(F)c2)NC(=O)CN(C)C(=O)[C@@H]1Cc1ccc(C(F)(F)F)cc1 [PP0747] ([NMeL][Nva(3-Et)][Sar][Sar][NPrPhe(4-CF3)][Sar][hPhe(3,5-F2-4-CF3)]P[Ac5c][NMeGly(cPent)][NMeD]-NMe2; lactam N-11) | 0.36 | C (A compound having a KD ratio of 0.1 or more and less than 3 is denoted as C) | B (a compound having 3 or more and less than 10 is denoted as B) | –
6 | CCO[C@@H]1C[C@H]2C(=O)NC3(CCC3)C(=O)N(C)[C@@H](C3CCCC3)C(=O)N(C)[C@H](C(=O)N3CCOCC3)CC(=O)N(C)[C@@H](CC(C)C)C(=O)N[C@@H]([C@@H](C)CC)C(=O)N(C)CC(=O)N(C)[C@H]3CCCCCN(C3=O)[C@@H](Cc3ccc(C(F)(F)F)cc3)C(=O)N(C)CC(=O)N[C@@H](CCc3cc(F)c(C(F)(F)F)c(F)c3)C(=O)N2C1 [PP0467] | 0.59 | B (a compound having 3 or more and less than 10 is denoted as B) | B (a compound having 3 or more and less than 10 is denoted as B) | –
